Laboratory results from patent US4939175A, “Use of N,N-dimethyl-1-[1-(4-chlorophenyl)cyclobutyl]-3-methylbutylamine” (priority 1988, dated 1990).
Like-named read-outs stand apart in the source and are kept apart here.

Assays:
[1] = system: depletion of serotonin induced by p-chloroamphetamine; experiment: Depletion of serotonin (5-HT) induced by p-chloroamphetamine (whole brain); type: in vivo, SlC:ddy mice; conditions: p-chloroamphetamine 10 mg/kg i.p., control 48 ± 6, **p < 0.01
Description: Effect of the test samples on the depletion of serotonin (hereinafter referred to as "5-HT") induced by p-chloroamphetamine
The test sample was administered orally to SlC:ddy made mice and after 60 minutes, p-chloroamphetamine (10 mg/kg) was injected intraperitoneally.
At 6 hours later, the mice were decapitated. The whole brain was rapidly removed and homogenized in 0.06M perchloric acid with N-methylserotonin (10 μg/ml) as an internal standard. The homogenate was centrifuged and then the amount of 5-HT in the supernatant was determined by high performance liquid chromatography with electrochemical detection.
Amitriptyline was used as the reference drug and distilled water was used as control sample.

[2] = system: sleeping time induced by thiopental; experiment: Sleeping time induced by thiopental; type: in vivo, Std: Wistar male rats; conditions: thiopental 40 mg/kg i.v., control 500.8 ± 12.0, **p < 0.01
Description: Effect of the test samples on the sleeping time induced by thiopental
The test sample was administered orally to Std: Wistar male rats, and at 60 minutes later, sodium thiopental (40 mg/kg) was injected intravenously.
The duration of sleeping time was determined as the time period between the injection of thiopental and return of the righting reflex.
Distilled water was used as control sample.

[3] = Acute toxicity, oral, mice; set-up: species or system SlC:ddy male mice; conditions: mouse, in vivo, read-out: Number of dead mice per 10 mice
Description: SlC:ddy male mice (10 heads/group) were used.
After the oral administration of the test smaple, desipramine was used as the test drug, to the mice, the number of the dead mice was counted at 0.5, 1, 2, 4, 18 and 24 hours respectively after the oral administration.

CC(C)CC(N(C)C)C1(c2ccc(Cl)cc2)CCC1.Cl (stereo not shown) [Test compound, N,N-dimethyl-1-[1-(4-chlorophenyl)cyclobutyl]3-methylbutylamine hydrochloride]
Percentages of the amount of 5-HT in the treated group against the amount of 5-HT in the non-treated group ([1]; 3 mg/kg oral): 64 ± 8% | Percentages of the amount of 5-HT in the treated group against the amount of 5-HT in the non-treated group ([1]; 10 mg/kg oral): 103 ± 10% | Sleeping time ([2]; 10 mg/kg oral): 345.6 ± 82.2 s | Sleeping time ([2]; 30 mg/kg oral): 338.5 ± 43.7 s | mortality at 0.5 h ([3]; 200 mg/kg oral): 0% | mortality at 1 h ([3]; 200 mg/kg oral): 10% | mortality at 2 h ([3]; 200 mg/kg oral): 10% | mortality at 4 h ([3]; 200 mg/kg oral): 10% | mortality at 18 h ([3]; 200 mg/kg oral): 20% | mortality at 24 h ([3]; 200 mg/kg oral): 20% | mortality at 0.5 h ([3]; 800 mg/kg oral): 40% | mortality at 1 h ([3]; 800 mg/kg oral): 50% | mortality at 2 h ([3]; 800 mg/kg oral): 50% | mortality at 4 h ([3]; 800 mg/kg oral): 60% | mortality at 18 h ([3]; 800 mg/kg oral): 90% | mortality at 24 h ([3]; 800 mg/kg oral): 90%
